In ChEMBL document CHEMBL3045971, “Normalizing effects of Costus speciosus rhizome crude extracts and its fractions on diabetic complications in STZ-induced diabetic rats” (Med Chem Res, 2011):

Experiments:
Rattus norvegicus [1] = experiment: Antidiabetic activity in Rattus norvegicus Wistar (rat) assessed as STZ-induced plasma glucose level at 20 mg/kg, po administered for 15 days by glucose oxidase method (reference value: 377.3 +/- 10.5 mg/dl); format: functional
Rattus norvegicus [2] = experiment: Antidiabetic activity in Rattus norvegicus Wistar (rat) assessed as STZ-induced plasma glucose level at 10 mg/kg, po administered for 15 days by glucose oxidase method (reference value: 377.3 +/- 10.5 mg/dl); format: functional
Rattus norvegicus [3] = experiment: Antidiabetic activity in Rattus norvegicus Wistar (rat) assessed as STZ-induced plasma glucose level at 5 mg/kg, po administered for 15 days by glucose oxidase method (reference value: 377.3 +/- 10.5 mg/dl); format: functional
Rattus norvegicus [4] = experiment: Effect on plasma glucose level in normal Rattus norvegicus Wistar (rat) at 20 mg/kg, po administered for 15 days by glucose oxidase method (reference value: 85.7 +/- 7.2 mg/dl); format: organism-based; design: dose 20 mg/kg, route oral; settings: in vivo, 360 h
Rattus norvegicus [5] = experiment: Antidiabetic activity in po dosed Rattus norvegicus Wistar (rat) assessed as decrease in STZ-induced plasma glucose level administered for 15 days by glucose oxidase method; format: functional, organism-based

SMILES | Activity (Rattus norvegicus [1]) [mg/dL] | Activity (Rattus norvegicus [2]) [mg/dL] | Activity (Rattus norvegicus [3]) [mg/dL] | Activity (Rattus norvegicus [4]) [mg/dL] | Activity (Rattus norvegicus [5])
C=C1C(=O)O[C@@H]2/C=C(\C)CC/C=C(\C)CC[C@@H]12 [COSTUNOLIDE] | 167 | 240.7 | 285.5 | 85.5 | Dose-dependent effect
C=C1CC[C@H]2C(C)=CC[C@H]3C(=C)C(=O)O[C@@H]3[C@@H]12 [EREMANTHIN] | 188.76 | 265.27 | 308.41 | 95.57 | Dose-dependent effect
